Experimental data from patent publication US12702654B2, “Compositions and methods for treating homocystinuria and other conditions using polyamines” (THE REGENTS OF THE UNIVERSITY OF COLORADO, priority 2020, dated 2026).

Columns and labels:
[1] = tested on: HO HCU mice; experiment: Plasma metabolite levels (tHcy, methionine cycle amino acids, SAM, SAH) in HO HCU mice; format: in vivo, mouse; conditions: for plasma Hcy / plasma cysteine levels: HO mice, about 3.0% (w/v) in drinking water ad libitum, normal methionine diet
Method: It is noted that WT mice (n=6) include untreated controls. HO HCU mice (N=8, 4 of each sex in each group) were either untreated or treated with about 3.0% (w/v) glycine w/v or about 3.0% (w/v) serine given in drinking water supplied ad libitum for one week. Plasma samples were taken and Hcy and cysteine levels were determined. *** denotes a P value <0.0001.
In accordance with these methods, HO HCU mice (N=8, 4 of each sex in each group) were treated with either about 3.0% glycine w/v or about 3.0% w/v serine given in drinking water supplied ad libitum for one week in the presence and absence of about 3.0% w/v betaine. Plasma samples were taken from the mice at various times and Hcy levels were determined.
Plasma Hcy levels were determined from HO HCU mice (n=8 per group) in the presence and absence of either about 5.0% w/v sodium formate alone or in combination with about 3.0% betaine given in drinking water given ad libitum.
In one exemplary method, mice were given zinc in drinking water. For this example, 8 HO HCU mice were provided drinking water supplemented with zinc (e.g. 0.05% w/v Zinc sulfate) given ad libitum for one week.
(§1) In another exemplary method, the transsulfuration pathway and methionine-folate cycle pathways, as show in the sematic illustrated in FIG. 18A, were assessed. In brief, three experimental groups (n=8 for each group) of male mice consisting of either untreated WT controls or HO HCU mice in the presence or absence of betaine treatment. Betaine was administered by dissolving the compound in drinking water at 30 g/l and was supplied ad libitum to the mice for one week. Treatment water was replenished twice per week.
A comparative reference data set was generated for these mice by examining plasma levels of tHcy, methionine, cysteine, serine, glycine, dimethylglycine, methylglycine (MG, SAM and SAH). In brief, determination of plasma levels of amino acids relevant to the methionine cycle were determined using methods similar to those described in Stabler et al., Blood. 81 (1993) 3404-3413, incorporated in its entirety herein. Determination of hepatic 5-methylTHF was performed by liquid chromatography-tandem mass spectrometry using methods similar to those described in Witham et al., PLoS One. 8 (2013) e77923, incorporated in its entirety herein. The global metabolomic analysis of methionine and folate cycle related metabolites was carried out by Metabolon, Inc. Briefly, sample preparation was performed utilizing the automated MicroLab STAR® system. Sample preparation was performed using a proprietary series of organic and aqueous extractions to remove the protein fraction while allowing maximum recovery of small molecules. The resulting extract was divided into two fractions: one for analysis by liquid chromatography and one for analysis by gas chromatography. Each sample was then frozen and dried under vacuum. The LC/mass spectrometer portion of the platform was based on a Waters ACQUITY UPLC and a Thermo-Finnigan LTQ mass spectrometer, which consisted of an electrospray ionization source and linear ion-trap mass analyzer. Samples were analyzed on a Thermo-Finnigan Trace DSQ fast-scanning single-quadrupole mass spectrometer using electron impact ionization. Identification of known chemical entities was based on comparison to library entries of authenticated standards. Tissue polyamines putrescine, spermidine and spermine and 5-methylthioadenosine (MTA) were determined by liquid chromatography-tandem mass spectrometry using methods similar to those described in Stevens et al., J Chromatogr A 1217 (2010) 3282-3288, incorporated in its entirety herein.

[2] = tested on: Cbs null mouse; experiment: Cbs null mouse model (Hcy, survival, liver injury); format: in vivo; conditions: severe liver damage abolished BHMT-mediated betaine response
Description: In another exemplary method, an acceptable mouse mode of HCU was used to study various effects of exemplary compositions disclosed herein on aberrant Hcy levels. To date, the majority of research on HCU had been performed using a CBS knockout mouse model. These Cbs (−/−) animals experienced pronounced liver injury and typically die within 2-3 weeks of birth.
In another exemplary method, agents were used to verify involvement of BHMT in the homocystinuria treatment process. In these exemplary methods, a Cbs null mouse was used where severe liver damage to the mouse model interferes with standard HCU treatments to reduce Hcy.

[3] = tested on: DMGDH; experiment: Western blotting of hepatic DMGDH protein levels; format: in vivo, mouse; conditions: HO HCU mice, about 5.0% sodium formate alone or with about 3.0% betaine in drinking water, about one week
Description: As shown in FIGS. 12A-12B, a Western blot comparing the level of DMGDH and GAPDH (control) for untreated (HO), treated (e.g. formate agent) and treated with standard treatment combinations (e.g. formate and trimethylglycine (e.g. betaine)) using the HCU mouse model (FIG. 12A); and further illustrating in a histogram plot (FIG. 12B), level of intensity of DMDGH for untreated (HO), treated (e.g. formate agent) and treated with standard treatment combinations (e.g. formate and trimethylglycine (e.g. betaine)) using the HCU mouse model in certain embodiments disclosed herein. Western blotting analysis of hepatic DMGDH protein levels in HO HCU mice in the presence and absence of either about 5.0% sodium formate alone or in combination with about 3.0% betaine given ad libitum in drinking water for about one week. N=9 per group. This figure is representative of three independent experiments.

[4] = tested on: HO HCU mice; experiment: Tail bleeding time / hypercoagulative phenotype in HO HCU mice; format: in vivo, mouse; conditions: 4 mM solution in drinking water ad libitum, one week
Method: In another exemplary method, effect of polyamines (e.g. spermidine and spermine) on the hypercoagulative phenotype induced by HCU was assessed which is a measure of treatment for genetic HCU where rapid coagulation is a side effect of these conditions. In brief, mice containing both the human CBS transgene and no functional copy of the mouse equivalent gene were identified by PCR from the litters of progeny of 11181×MKO^+/− F1 mice backcrossed to MKO^+/− mice. These mice were designated as “human only” (HO) mice and used as a human model of HCU. […] In order to further investigate the possible therapeutic potential of polyamine (e.g. spermidine and spermine) therapy in HCU, WT and HO HCU mice were given either: […]; […] in drinking water given ad libitum; or drinking water (untreated, control). After one week, tail bleeding times were determined for untreated wild type (WT) control B6 mice and HO HCU mice from all treatment groups.

[5] = tested on: SHMT2; experiment: Western blotting of hepatic SHMT2 expression; format: in vivo, mouse; conditions: HO mice, 30 g/l in drinking water ad libitum, one week
Method: (§2) To investigate the effects of these treatments upon the hepatic regulatory changes in enzyme expression induced by HCU, the human transgenic HO mouse model of HCU was used. In brief, experimental groups consisting of 8 HO mice on a C57BL/6J background and 8 C57BL/6J WT littermate control mice bred in house were used. Mice in both groups were male and aged between 3 and 4 months. Except where otherwise stated, all mice were maintained on standard chow. All diets were administered using a paired-feeding design to ensure isocaloric intake between all experimental groups and body weights were measured once per week. There was no significant difference in body weight between mice in any of the experimental groups. Betaine and taurine were in this example, both administered by dissolving these compounds in drinking water at 30 g/l (2% or 3% w/v) and were supplied ad libitum for one week. Treatment water was replenished twice per week.
(§3) Western blotting analysis of SAHH, MTHFR and SHMT2 expression was performed in liver samples from HO mice in the presence and absence of betaine or taurine treatment.

[6] = tested on: HO HCU mice; conditions: taurine supplementation; cited from earlier work
[7] = tested on: MAT1A; experiment: Western blotting of hepatic MAT1A expression; format: in vivo, mouse; conditions: HO HCU mice, 30 g/l in drinking water ad libitum, one week
Method: as §2
(§4) These observations are the first to report betaine and taurine acting to regulate expression of these processes. Therefore, this observation supports that taurine alone or in combination with betaine and other treatments for genetic homocystinuria are viable options for avoiding dietary restraints and treating these conditions.

[8] = mouse, in vivo
Method: as §1
as §2, with “Betaine and taurine were in this example, both administered by dissolving these compounds in drinking water at 30 g/l (2% or 3% w/v) and were supplied ad libitum for one week. Treatment water was replenished twice per week.” left out

[9] = tested on: MTHFR; experiment: Western blotting of hepatic MTHFR expression; format: in vivo, mouse; conditions: HO mice, 30 g/l in drinking water ad libitum, one week
Method: as §2, §3

[10] = tested on: cysteine oxidation pathways; experiment: Cysteine oxidation pathways in HCU (HO model); format: in vivo, mouse; conditions: 30 g/l in drinking water, one week
Method: as §2

[11] = tested on: human HCU patients; conditions: taurine supplementation; cited from earlier work
[12] = tested on: SAHH; experiment: Western blotting of hepatic SAHH expression; format: in vivo, mouse; conditions: HO mice, 30 g/l in drinking water ad libitum, one week
Method: as §2, §3

[13] = tested on: GNMT; experiment: Western blotting of hepatic GNMT expression; format: in vivo, mouse; conditions: HO HCU mice, 30 g/l in drinking water ad libitum, one week
Method: as §2, §4

[14] = tested on: HO HCU mice; experiment: Plasma metabolite levels (tHcy, methionine cycle amino acids, SAM, SAH) in HO HCU mice; format: in vivo, mouse; conditions: taurine treatment
[15] = tested on: SHMT1; experiment: Western blotting of hepatic SHMT1 expression; format: in vivo, mouse; conditions: HO mice, 30 g/l in drinking water ad libitum, one week
Method: as §2, §4

[16] = tested on: glutathione; conditions: taurine supplementation; cited from earlier work

O=S(=O)([O-])[O-].[Zn+2] [Zinc sulfate]
decrease in plasma homocysteine ([1]; 8 HO HCU mice, 0.05% w/v Zinc sulfate in drinking water ad libitum, one week, p<0.001): 25%

NCC(=O)O [glycine]
Hcy in Cbs null mouse model [2]: unable to lower Hcy | plasma Hcy ([1]; one week): significantly lowered | plasma cysteine levels ([1]; one week): increased

N[C@@H](CO)C(=O)O [serine]
Hcy in Cbs null mouse model [2]: unable to lower Hcy | plasma Hcy ([1]; one week): significantly lowered | plasma cysteine levels ([1]; one week): increased

O=C[O-].[Na+] [sodium formate]
Hcy in Cbs null mouse model [2]: unable to lower Hcy | hepatic DMGDH expression levels [3]: restore normal expression levels | plasma Hcy levels ([1]; HO HCU mice, about 5.0% w/v sodium formate alone or with about 3.0% betaine in drinking water ad libitum, normal methionine/protein diet): significantly lowered

NCCCCNCCCN [spermidine]
clotting time (tail bleeding time) compared to untreated HO mice [4]: highly significant increase in clotting time

NCCCNCCCCNCCCN [spermine]
clotting time (tail bleeding time) compared to untreated HO mice [4]: significantly ameliorated

NCCS(=O)(=O)O [taurine]
HCU-induced repression of hepatic SHMT2 [5]: essentially identical reversal | efficacy of betaine treatment in mice [6]: enhances the efficacy of betaine treatment | hepatic MAT1a expression [7]: induced expression | tolerability of doses [8]: well tolerated | HCU-mediated induction of hepatic MTHFR expression [9]: essentially identical reversal | dysregulation of cysteine oxidation pathways in HCU [10]: ameliorate the dysregulation of cysteine oxidation pathways | endothelial dysfunction in human HCU patients [11]: completely ablate endothelial dysfunction | HCU-mediated induction of hepatic SAHH expression [12]: essentially identical reversal | hepatic GNMT expression [13]: induced expression | effect upon lowering plasma tHcy levels [14]: only a mild effect | increase in hepatic SHMT1 expression [15]: 35% | HCU-induced disturbances in glutathione metabolism and the gamma-glutamyl cycle [16]: effectively normalized
